According to patent publication US8093244B2, “Heteroaryl urea derivatives useful for inhibiting CHK1” (ICOS Corporation, priority 2005, dated 2012):

How the values were obtained:
[1] = system: Chk1; assay: Western blot of Chk1 phosphorylation at serine 296 in HT29 cells (Example 10); type: cell-based, human; details: gemcitabine 20 μM for two h, 22 additional h
Protocol: Phosphorylation at this site is not inhibited by wortmannin, which inhibits Atm and Atr. Therefore, the phosphorylation of serine 296 is distinct from phosphorylation at serines 317 and 345. […] Therefore, this approach can be used to monitor Chk1 activity in tumors in response to Chk1 activators. Further, this approach can be used to measure inhibition of Chk1 activation by Chk1 inhibitors.
Thus, HT 29 cells are treated with 20 μM gemcitabine for two h. The gemcitabine is washed out of the cell growth media and cells are incubated for 22 additional h. Protein lysates are prepared and separated by an SDS-polyacrylamide gel electrophoresis. Proteins are transferred to polyvinylidene fluoride (PVDF) membranes and probed with antisera (Cell Signalling) specific for phosphorlyated serine 296 (Cell Signalling). […] Further, HT29 cells treated with selective Chk1 inhibitors for 15 min show no serine 296 phosphorylation.

[2] = system: xenograft tumors of colon tumor cell lines; assay: Xenograft animal tumor models (Example 11); type: in vivo, Balb/c (nu/nu) mice; details: 160 mg/kg intraperitoneal
From the text: To test the ability of the Chk1 inhibitors of the invention to enhance the killing of tumors by DNA damaging agents in mice, xenograft tumor models using colon tumor cell lines are established. 5-fluorouracil (5-FU) or gemcitabine can be used as DNA damaging agents. HT29 and Colo205 (human colon carcinoma) and H460 and Calu-6 (nonsmall cell carcinoma) cells can be used to propagate xenograft tumors in 6-8 week old female […] Balb/c (nu/nu) mice. Mice are maintained in a laminar airflow cabinet under pathogen-free conditions and fed sterile food and water ad libitum. Cell lines are grown to subconfluence in RPMI 1640 media supplemented with 10% FBS, 100 U/mL penicillin, 100 μg/mL streptomycin, and 1.5 mM L-glutamine in a 5% CO2 humidified environment. Single cell suspensions are prepared in CMF-PBS, and cell concentration adjusted to 1×10^8 cells/mL. Mice are inoculated subcutaneously (s.c.) on the right flank or right leg with a total of 1×10^7 cells (100 μL). Mice are randomized (5-15 mice/group) into four treatment groups and used when tumors reach a volume of […] (usually 7-11 days post-inoculation). Tumors are measured with vernier calipers and tumor volumes are estimated using the empirically derived formula: tumor volume (cm^3)=tumor length (cm)×tumor width (cm)×tumor depth (cm)/3.3. […] Tumor size is monitored every other day for the duration of the experiment.

[3] = system: Chk1; assay: Western blot of Chk1 phosphorylation at serines 317 and 345 in HT29 cells (Example 9); type: cell-based, human; details: 20 μM for two h, 22 additional h
From the text: To determine whether an agent is a Chk1 activator, the phosphorylation state of Chk1 can be measured using phospho-specific antibodies to specific phosphorylation sites on Chk1. […] Liu et al., Genes Dev. 14:1448-1459, 2000; Zhao et al., Mol. Cell Biol. 21:4129-4139, 2001; Lopez-Girona et al., Proc. Natl. Acad. Sci. U.S.A. 98:11289-11294, 2001; Guo et al., Genes Dev. 14:2745-2756, 2000; Gatei et al., J. Biol. Chem. 278:14806-14811, 2003; Ng et al., J Biol Chem. 279 (10):8808-19, 2004; Wang et al., Natl Acad Sci USA. 100(26):15387-92, 2003; Stojic et al., Genes Dev. 18(11):1331-44, 2004. These serine sites are phosphorylated by upstream checkpoint kinases, Atm and Atr. Liu et al., Genes Dev. 14:1448-1459, 2000; Zhao et al. Mol. Cell Biol., 21:4129-4139, 2001).
The phosphorylation of these sites in response to a candidate Chk1 activator can be monitored by Western blot or immunohistochemistry of tumor cells. […] HT29 cells are treated with 20 μM gemcitabine for two h. The gemcitabine is washed out of the cell growth media and cells are incubated for 22 additional h. Protein lysates are prepared and separated by an SDS-polyacrylamide gel electrophoresis. Proteins are transferred to PVDF membranes and probed with antisera (Cell Signalling) specific for either phosphorylated serine 317 or 345 (Cell Signalling).

| Compound | phosphorylation of Chk1 serine 296 [1] | tumor growth [2] | phosphorylation of Chk1 serines 317 and 345 [3] |
| --- | --- | --- | --- |
| COC[C@H]1OC(=O)c2coc3c2[C@@]1(C)C1=C(C3=O)[C@@H]2CCC(=O)[C@@]2(C)C[C@H]1OC(C)=O [wortmannin] | not inhibited | – | – |
| Nc1ccn([C@@H]2O[C@H](CO)[C@@H](O)C2(F)F)c(=O)n1 [gemcitabine, 2′,2′-difluoro-2′-deoxycytidine] | results in the phosphorylation of serine 296 | A delay in tumor growth is observed | results in the phosphorylation of both serines 317 and 345 |
